# From patent US8076358B2, “6-substituted-thio-2-amino-quinoline derivatives useful as inhibitors of β-secretase (BACE)” (Janssen Pharmaceutica NV, priority 2008, dated 2011)
# Target: human BACE-1 (Homo sapiens, UniProt P56817)
# Assay: In Vitro BACE Assay (CEREP, fluorogenic substrate)
# Assay type: biochemical
# Conditions: recombinant enzyme; for inhibition at 10 µM: 10 μM test compound, pH 4.5; for IC50: pH 4.5, 60 min at 37° C.
# Procedure: This assay was run by CEREP (Catalog Ref. 761-B, Referred to SOP No. 1C131; ERMOLIEFF, J., LOY, J. A., KOELSCH, G. and TANG, J., Proteolytic activation of recombinant pro-memapsin 2 (pro-BACE) studied with new fluorogenic substrates, Biochemistry, (2000) Vol. 39, p. 12450).
# More specifically the assay, run at 50 μL in a 96 well plate, evaluated the effect of test compound on the activity of the human BACE-1 quantified by measuring the formation of Mca-S-E-V-N-L-NH2 from Mca-S-E-V-N-L-D-A-E-F-R-K(Dnp)-R-R—NH2, using a recombinant enzyme.
# The test compound, reference compound or water (control) was added to a buffer containing 0.09 M sodium acetate (pH 4.5) and 0.25 μg BACE-1. Compound interference with the fluorimetric detection method due to autofluorescence was then checked by measurements at the wavelengths defined to evaluate the enzyme activity. Thereafter, the reaction was initiated by adding 7.5 μM of the substrate Mca-S-E-V-N-L-D-A-E-F-R-K(Dnp)-R—R—NH2 and the mixture was incubated for 60 min at 37° C. For control basal measurement, the substrate was omitted from the reaction mixture. Immediately after the incubation, the fluorescence intensity emitted by the reaction product Mca-S-E-V-N-L-NH2 was measured at λex=320 nm and λem=405 nm using a microplate reader (Ultra, Tecan). The standard inhibitory reference compound was OM99-2, which was tested in each experiment at several concentrations to obtain an inhibition curve from which its IC50 value was calculated.
# Sequence of human BACE-1 (P56817 46-501): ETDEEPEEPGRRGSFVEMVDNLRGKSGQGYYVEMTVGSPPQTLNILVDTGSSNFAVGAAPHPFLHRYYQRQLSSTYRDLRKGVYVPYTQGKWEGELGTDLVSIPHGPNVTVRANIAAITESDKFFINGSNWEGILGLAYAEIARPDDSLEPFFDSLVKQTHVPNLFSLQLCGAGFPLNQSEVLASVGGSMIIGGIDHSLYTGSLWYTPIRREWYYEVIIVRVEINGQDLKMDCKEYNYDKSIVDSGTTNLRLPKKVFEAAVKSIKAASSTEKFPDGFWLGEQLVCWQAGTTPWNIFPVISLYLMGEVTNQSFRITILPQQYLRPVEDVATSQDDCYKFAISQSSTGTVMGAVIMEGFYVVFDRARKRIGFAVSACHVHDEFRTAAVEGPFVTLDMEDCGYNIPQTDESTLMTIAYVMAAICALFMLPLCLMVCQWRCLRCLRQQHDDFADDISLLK
Compound,inhibition at 10 µM [%],IC50 [nM]
Nc1nc2ccc(Sc3cccc(CNCc4ccccn4)c3)cc2cc1CC1CCOCC1 [Compound 5],93,800
Nc1nc2ccc(Sc3cccc(CNCc4c(F)cccc4F)c3)cc2cc1CC1CCOCC1 [Compound 4],97,400
Cc1ccc(CNCc2cccc(Sc3ccc4nc(N)c(CC5CCOCC5)cc4c3)c2)c(C)c1 [Compound 6],98,450
"Cc1cc(C)c(CNCc2cccc(Sc3ccc4nc(N)c(CC5CCOCC5)cc4c3)c2)c(C)c1 [Compound 1, 3-(Tetrahydro-pyran-4-ylmethyl)-6-{3-[(2,4,6-trimethyl-benzylamino)-methyl]-phenylsulfanyl}-quinolin-2-ylamine]",96,260
COc1ccc(CNCc2cccc(Sc3ccc4nc(N)c(CC5CCOCC5)cc4c3)c2)c(OC)c1 [Compound 7],90,380
Nc1nc2ccc(Sc3cccc(CNCc4cc(F)ccc4F)c3)cc2cc1CC1CCOCC1 [Compound 8],95,210
Cc1cc(C)c(NCc2cccc(Sc3ccc4nc(N)c(CC5CCOCC5)cc4c3)c2)c(C)c1 [Compound 2],94,920

# Other lines, results leading:
inhibition at 10 µM [%],IC50 [nM],Compound
91,630,Nc1nc2ccc(Sc3cccc(CCNCc4ccccn4)c3)cc2cc1CC1CCOCC1 [Compound 21]
95,300,CCOc1ccccc1CNCc1cccc(Sc2ccc3nc(N)c(CC4CCOCC4)cc3c2)c1 [Compound 10]
98,1200,"Cc1cc(C)c(CNCc2cccc(Oc3ccc4nc(N)c(CC5CCOCC5)cc4c3)c2)c(C)c1 [Compound (II-a), 3-(Tetrahydro-pyran-4-ylmethyl)-6-{3-[(2,4,6-trimethylbenzylamino)-methyl]-phenoxy}-quinolin-2-ylamine]"
63,2800,CCCC(NCc1cccc(Sc2ccc3nc(N)c(CC4CCOCC4)cc3c2)c1)C(=O)O (stereo not drawn) [Compound 13]
98,140,CCOc1ccccc1CNCCc1cccc(Sc2ccc3nc(N)c(CC4CCOCC4)cc3c2)c1 [Compound 20]
95,260,"CCOc1ccccc1CNCc1cccc(Sc2cc3cc(CC4CCOCC4)c(N)nc3cc2F)c1 [Compound 18, 6-{3-[(2-Ethoxy-benzylamino)-methyl]-phenylsulfanyl}-7-fluoro-3-(tetrahydro-pyran-4-ylmethyl)-quinolin-2-ylamine]"
94,330,Nc1nc2ccc(Sc3cccc(CSc4cccc(CC(=O)O)c4)c3)cc2cc1CC1CCOCC1 [Compound 17]
98,240,Nc1nc2ccc(Sc3cccc(CNCc4ccc(Cl)cc4Cl)c3)cc2cc1CC1CCOCC1 [Compound 9]
74,> 10000,"Cc1cc(C)c(CNCc2cccc(Oc3ccc4nc(N)c(CCC5CCOCC5)cc4c3)c2)c(C)c1 [Compound (II-b), 3-[2-(Tetrahydro-pyran-4-yl)-ethyl]-6-{3-[(2,4,6-trimethylbenzylamino)-methyl]-phenoxy}-quinolin-2-ylamine]"
90,460,Nc1nc2ccc(Sc3cccc(CNCc4ccc(C(F)(F)F)cc4)c3)cc2cc1CC1CCOCC1 [Compound 12]
93,1200,Cc1ccc(C)c(COCc2cccc(Sc3ccc4nc(N)c(CC5CCOCC5)cc4c3)c2)c1 [Compound 16]
